Assays:
[1] = system: A549 cells induced by TGF-β1 (lung fibrosis model); assay: Hydroxyproline content in TGF-β1-induced A549 pulmonary fibrosis cell model; format: cell-based, human; conditions: for Hydroxyproline Content Inhibition Rate in the Pulmonary Fibrosis Model: 48 hours
Method: Human non-small cell lung cancer cells A549 were cultured in DMEM medium containing 10% (volume fraction) fetal bovine serum, cultured in a carbon dioxide incubator with a volume fraction of 5% at 37° C., and changed once every other day, depending on cell density. A549 cells in logarithmic growth phase were digested with 0.25% trypsin to prepare a cell suspension, adjusted to a cell concentration of 1×10^9 cells/L, and seeded at a density of 4×10^5 cells/cm2 in a cell culture dish of 90 cm^2. The cells were randomly divided into two groups: (1) control group: cultured in DMEM containing 10% (volume fraction) fetal bovine serum; (2) model group: containing 10% (volume fraction) fetal bovine serum, transforming growth factor (TGF-β1, final concentration 5 μg/L) was cultured in DMEM. The cells were cultured at 37° C. in a volumetric 5% carbon dioxide incubator, and changed every other day, depending on the cell density. Cell morphology was observed daily using an inverted microscope to determine when the model was established. When A549 cells are changed from the cobblestone shape of the original epithelial cells to the long spindle shape of the interstitial cells, the modeling is successfully established.
After 48 hours of addition of the polypeptides, the cells of the control group, the model group, and the administration group were collected for subsequent measurement of molecular markers related to pulmonary fibrosis.
Hydroxyproline accounts for 13.4% of collagen, so the content of hydroxyproline can reflect the accumulation of collagen during pulmonary fibrosis, which in turn reflects the degree of pulmonary fibrosis.
Prepare citric acid buffer: 120 g of sodium citrate, 12 mL of glacial acetic acid, 46 g of citric acid, 34 g of sodium hydroxide, dissolved in distilled water, adjust the pH to 6.0, and then dilute to 1000 mL.
Prepare 0.05 mol/L chloramine T solution: weigh 7.05 g of chloramine T, dissolve in 100 mL of distilled water, then add 150 mL of ethylene glycol, and add 250 mL of citric acid buffer to mix well.
Prepare p-dimethylaminobenzaldehyde: Reagent A: Take 20 mL of absolute ethanol, slowly add 2.74 mL of concentrated sulfuric acid; Reagent B: Take 12.0 g of p-dimethylaminobenzaldehyde, slowly add 40 mL of absolute ethanol. Heat in a water bath to completely dissolve and cool to room temperature, then slowly add the A solution to B and mix well.
Prepare a […] perchloric acid solution: take 27 mL of perchloric acid and dilute to 100 mL with distilled water.
The specific steps are as follows: collect the cells in a 1 mL water solution and lyse the cells using a homogenizer; adjust the pH to neutral, dilute to 3 mL, add activated carbon to centrifuge; take 1 mL supernatant, add 1 mL solution 1 (1 mL citrate buffer and 1 mL 0.05 mol/L chloramine T solution), stand for 10 minutes, add 1 mL of perchloric acid, stand for 5 minutes, add 1 mL of p-dimethylaminobenzaldehyde reagent, keep in 60° C. water bath for 15 minutes; centrifuge at 3500 rpm/min for 10 minutes, take the supernatant to measure the absorbance value at a wavelength of 550 nm.
The test was repeated 3 times independently, and the inhibition rate was calculated as follows: inhibition rate (%)=(1−experimental group absorbance/model group absorbance)×100%.

[2] = system: adenovirus concentrate; assay: Mouse pneumonia model, viral; format: in vivo, BALB/C mice; conditions: mean ± SD
Method: (§1) The mouse pneumonia model was successfully established by the nose-drop method. To build the mouse pneumonia model, BALB/C mice with a body mass of 16-22 g were selected and anesthetized pneumonia chain was prepared after anesthesia with ether on day 0, day 1, and day 2. Staphylococcal fluid, adenovirus concentrate, Mycoplasma pneumoniae, Chlamydia pneumoniae, protozoa, and pneumonia fungi were slowly dripped into the nasal cavity of the mice, so that they enter the tracheobronchial. During the operation process, care was exercised to prevent bacterial fluid from flowing into the esophagus, which leads to inactivation the bacterial fluid. After successful model establishment, the polypeptides of the present invention were administered, and the results were shown in Table 5. […] The results were expressed in average value±standard deviation.

[3] = system: protozoa; assay: Mouse pneumonia model, protozoal; format: in vivo, BALB/C mice; parameters: concentration or dose not given beside the values; conditions: mean ± SD
Method: as §1

[4] = system: Adenocarcinoma; assay: MTT assay, lung cancer tumor cells; format: cell-based, human; parameters: concentration or dose not given beside the values; conditions: 48 h, mean ± SD
Method: (§2) The inhibition of the growth of human lung cancer tumor cells by the polypeptide of the present invention was examined by MTT assay. The lung cancer tumor cells were cultured in a 37° C., 5% (volume fraction) CO2 incubator to a density of 90% or more, and collected by trypsinization. The cells were resuspended in the culture medium and counted under a microscope to adjust the cell concentration to 2.0×10^4 cells/mL, the cell suspension was inoculated into a 96-well plate at 100 μL per well, and cultured overnight at 37° C. in a 5% (volume fraction) CO2 incubator. After the cells were completely adhered, the polypeptide of the present invention was added as a drug-administered group, and a culture solution containing no drug was used as a blank control group, and the culture solution was diluted to each predetermined concentration. Each dilution was separately added to a 96-well plate at 100 μL per well and incubated for 48 h at 37° C. in a 5% (volume fraction) CO2 incubator. 20 μL of 5 mg/mL MTT was added to each well of a 96-well plate, and incubation was continued for 4 hours. The medium was aspirated, and the cells were dissolved in 100 μL of DMSO per well. The absorbance was measured by a microplate reader at a detection wavelength of 570 nm and a reference wavelength of 630 nm, and the growth inhibition rate was calculated as follows: tumor growth inhibition rate (%)=(1−administered group absorbance value/unadministered group absorbance value)×100%, and the experiment was repeated 3 times independently. The results obtained by the test were expressed as mean±standard deviation. The results in Table 6 indicate that the polypeptides of the present invention have a good inhibitory effect on proliferation of a variety of human lung cancer tumors (FIG. 5).

[5] = system: Adenosquamous carcinoma; assay: MTT assay, lung cancer tumor cells; format: cell-based, human; parameters: concentration or dose not given beside the values; conditions: 48 h, mean ± SD
Method: as §2

[6] = system: Large cell lung cancer; assay: MTT assay, lung cancer tumor cells; format: cell-based, human; parameters: concentration or dose not given beside the values; conditions: 48 h, mean ± SD
Method: as §2

[7] = system: Non-small cell lung cancer; assay: MTT assay, lung cancer tumor cells; format: cell-based, human; parameters: concentration or dose not given beside the values; conditions: 48 h, mean ± SD
Method: as §2

[8] = system: Small Cell Lung Cancer; assay: MTT assay, lung cancer tumor cells; format: cell-based, human; parameters: concentration or dose not given beside the values; conditions: 48 h, mean ± SD
Method: as §2

[9] = system: Squamous cell carcinoma; assay: MTT assay, lung cancer tumor cells; format: cell-based, human; parameters: concentration or dose not given beside the values; conditions: 48 h, mean ± SD
Method: as §2

Substance	effect on content of hydroxyproline in lung fibrosis model cells (FIG. 1-3), in words [1]	Hydroxyproline Content Inhibition Rate in the Pulmonary Fibrosis Model ([1]; 4 uM) [%]	Hydroxyproline Content Inhibition Rate in the Pulmonary Fibrosis Model ([1]; 8 uM) [%]	Inhibitory Effects on Various Pulmonary Infections [2] [%]	Inhibitory Effects on Various Pulmonary Infections [3] [%]	tumor growth inhibition rate, MTT Assay [4] [%]	tumor growth inhibition rate, MTT Assay [5] [%]	tumor growth inhibition rate, MTT Assay [6] [%]	tumor growth inhibition rate, MTT Assay [7] [%]	tumor growth inhibition rate, MTT Assay [8] [%]	tumor growth inhibition rate, MTT Assay [9] [%]
Pro-(D-Pyr)-(D-Cys)-Bip-Arg-Gly-Glu-Gly-Gly-Gly-Gly-Arg-Gly-Asp-Gly-Gly-Gly-Gly-Ile-Val-Arg-Arg-Ala-Asp-Arg-Ala-Ala-Val-Pro [Polypeptide VI]	can inhibit the content of hydroxyproline in lung fibrosis model cells	29.55	54.17	52.54 ± 13.88	55.50 ± 18.21	78.80 ± 13.47	53.80 ± 12.33	79.04 ± 14.36	83.25 ± 17.67	63.23 ± 12.96	59.67 ± 9.56
Pro-(D-Pyr)-(D-Cys)-Bip-Arg-Gly-Glu-Gly-Gly-Gly-Gly-Ile-Val-Arg-Arg-Ala-Asp-Arg-Ala-Ala-Val-Pro-Gly-Gly-Gly-Gly-Arg-Gly-Asp [Polypeptide I]	can inhibit the content of hydroxyproline in lung fibrosis model cells	36.50	52.14	43.78 ± 14.17	46.25 ± 18.59	65.67 ± 13.74	44.84 ± 12.58	65.87 ± 14.65	69.38 ± 18.03	52.70 ± 13.22	49.73 ± 9.76

— patent US20190031717A1, “MULTI-FUNCTIONAL FUSION POLYPEPTIDE, PREPARATION METHOD THEREOF, AND APPLICATION OF SAME” (NANJING ANJI BIOLOGICAL TECHNOLOGY CO., LTD, priority 2016, published 2019)
